For 75 compounds, Ki results are on record in ChEMBL document CHEMBL1132382 (J Med Chem, 1999).

The Ki is a measure of affinity in units of concentration, obtained from inhibition or displacement. Read a low Ki as higher affinity.

Molecules are shown by their SMILES.

One test has as its target T1, Carbonic anhydrase 4 (Bos taurus, UniProt Q95323).
T1 sequence (Q95323 whole entry): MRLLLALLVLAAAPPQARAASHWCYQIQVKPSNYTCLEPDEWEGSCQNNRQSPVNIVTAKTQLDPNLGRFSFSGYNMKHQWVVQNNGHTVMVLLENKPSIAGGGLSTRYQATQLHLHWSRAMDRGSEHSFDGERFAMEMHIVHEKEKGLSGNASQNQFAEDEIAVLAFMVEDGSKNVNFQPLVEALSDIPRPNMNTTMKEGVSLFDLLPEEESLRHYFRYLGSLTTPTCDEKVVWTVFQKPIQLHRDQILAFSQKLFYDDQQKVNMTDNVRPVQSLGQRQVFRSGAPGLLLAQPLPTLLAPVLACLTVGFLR

The target in the next test is Carbonic anhydrase 1 (Homo sapiens, UniProt P00915).
Chain of Carbonic anhydrase 1 (P00915 whole entry): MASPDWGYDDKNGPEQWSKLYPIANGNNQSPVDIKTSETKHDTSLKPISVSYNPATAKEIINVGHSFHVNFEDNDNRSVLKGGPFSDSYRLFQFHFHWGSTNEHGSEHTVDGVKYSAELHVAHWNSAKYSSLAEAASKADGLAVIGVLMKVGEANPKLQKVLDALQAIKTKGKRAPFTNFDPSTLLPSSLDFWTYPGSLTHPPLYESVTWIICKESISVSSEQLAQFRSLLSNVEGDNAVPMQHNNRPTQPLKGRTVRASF

Description for Carbonic anhydrase 1: Inhibitory activity against human recombinant carbonic anhydrase I (CA1)
Description for Carbonic anhydrase 4: Inhibitory activity against bovine carbonic anhydrase IV (CA4), isolated from bovine lung microsomes

Consider `NCC(=O)NCC(=O)Nc1ccc(S(N)(=O)=O)cc1Cl`, for which the results for the Ki on Carbonic anhydrase 4 and at Carbonic anhydrase 1 were 65 nM and 550 nM, respectively.
The like results for `CN(CC(=O)Nc1ccc(S(=O)(=O)Nc2ccc(S(N)(=O)=O)cc2)cc1)C(=N)N` were, in that order, 51 nM and 46 nM.
In the case of `CNCC(=O)Nc1ccc2nc(S(N)(=O)=O)sc2c1`, the inhibitory constant (Ki) amounted to 14 nM at Carbonic anhydrase 4 and 10 nM at Carbonic anhydrase 1.
`Nc1nccc(Nc2ccc(S(N)(=O)=O)cc2)n1` gave a Ki at Carbonic anhydrase 4 of 154 nM.
Take `NCC(=O)NCC(=O)Nc1ccc(S(N)(=O)=O)cc1`: the Ki on Carbonic anhydrase 4 stood at 154 nM; at Carbonic anhydrase 1, 15000 nM.
At Carbonic anhydrase 4, `NCC(=O)Nc1ccc(S(N)(=O)=O)cc1` displayed an inhibition constant (Ki) of 175 nM.
For the compound `CNCC(=O)Nc1ccc(S(N)(=O)=O)cc1I`, the inhibition constant Ki on Carbonic anhydrase 4 turned out to be 70 nM; at Carbonic anhydrase 1, 560 nM.
The like results for `CNCC(=O)NS(=O)(=O)c1nc2ccc(OCCO)cc2s1` were, in that order, 15 nM and 10 nM.
As to `NCC(=O)Nc1nccc(Nc2ccc(S(N)(=O)=O)cc2)n1`, the Ki on Carbonic anhydrase 4 is 75 nM; at Carbonic anhydrase 1, 61 nM.
For `NCC(=O)Nc1ccc(S(N)(=O)=O)cc1Br`, the values for the Ki on Carbonic anhydrase 4 and on Carbonic anhydrase 1 were 73 nM and 600 nM, respectively.
The matching figures for `NCC(=O)Nc1c(S(N)(=O)=O)cc(S(N)(=O)=O)c(Cl)c1Cl`: 62 nM and 520 nM.
The matching figures for `CN(CC(=O)Nc1ccccc1S(N)(=O)=O)C(=N)N`: 205 nM and 20300 nM.
The like results for `CN(CC(=O)NCc1ccc(S(N)(=O)=O)cc1)C(=N)N` were, in that order, 71 nM and 950 nM.
As to `CCN(C(=O)CN)C1CC(C)S(=O)(=O)c2sc(S(N)(=O)=O)cc21` (stereo not drawn), the results for the inhibitory constant (Ki) on Carbonic anhydrase 4 and at Carbonic anhydrase 1 were 35 nM and 98 nM, respectively.
The like results for `CN(CC(=O)NNc1ccc(S(N)(=O)=O)cc1)C(=N)N` were, in that order, 245 nM and 20800 nM.
The matching figures for `CNCC(=O)Nc1cccc(S(N)(=O)=O)c1`: 195 nM and 16600 nM.
`NCC(=O)NS(=O)(=O)c1ccc(CCO)cc1`: the Ki on Carbonic anhydrase 4 was 155 nM; at Carbonic anhydrase 1, 1700 nM.
The matching figures for `CN(CC(=O)Nc1cc(Cl)c(S(N)(=O)=O)cc1S(N)(=O)=O)C(=N)N`: 42 nM and 310 nM.
Turning to `CN(CC(=O)Nc1ccc(S(N)(=O)=O)cc1)C(=N)N`, the inhibition constant Ki at Carbonic anhydrase 4 turned out to be 140 nM; at Carbonic anhydrase 1 it was 14600 nM.
With `Nc1ccc(S(=O)(=O)Nc2ccc(S(N)(=O)=O)cc2)cc1`, the Ki on Carbonic anhydrase 4 is 50 nM.
Turning to `NCC(=O)NCC(=O)Nc1ccc(S(N)(=O)=O)cc1F`, the inhibition constant Ki was determined as 45 nM on Carbonic anhydrase 4 and 540 nM at Carbonic anhydrase 1.
The matching figures for `NCC(=O)Nc1ccccc1S(N)(=O)=O`: 245 nM and 25000 nM.
With `CNCC(=O)Nc1ccc(S(=O)(=O)/N=c2\sc(S(N)(=O)=O)nn2C)cc1`, the affinity on Carbonic anhydrase 1, expressed as Ki, was 11 nM.
For `Cn1nc(S(N)(=O)=O)s/c1=N\S(=O)(=O)c1ccc(NC(=O)CNC(=O)CN)cc1`, at Carbonic anhydrase 1, the affinity corresponds to a Ki of 13 nM.
As for `CNCC(=O)Nc1c(S(N)(=O)=O)cc(S(N)(=O)=O)c(Cl)c1Cl`, the Ki is 55 nM on Carbonic anhydrase 4 and 520 nM on Carbonic anhydrase 1.
Consider `NCC(=O)NCC(=O)Nc1ccc(S(N)(=O)=O)cc1I`, for which the inhibitory constant (Ki) on Carbonic anhydrase 4 was determined as 71 nM; on Carbonic anhydrase 1, 590 nM.
With `NCC(=O)Nc1ccc(S(N)(=O)=O)cc1Cl`, the figures for the Ki on Carbonic anhydrase 4 and on Carbonic anhydrase 1 were 78 nM and 600 nM, respectively.
Consider `NCC(=O)NCC(=O)Nc1nccc(Nc2ccc(S(N)(=O)=O)cc2)n1`, for which the inhibition constant Ki at Carbonic anhydrase 4 came out at 69 nM; on Carbonic anhydrase 1 it was 60 nM.
The matching figures for `NCC(=O)NCC(=O)Nc1ccccc1S(N)(=O)=O`: 240 nM and 23500 nM.
Consider `CNCC(=O)Nc1ccc(S(N)(=O)=O)cc1`, for which the Ki came out at 146 nM at Carbonic anhydrase 4 and 15000 nM on Carbonic anhydrase 1.
Take `NCC(=O)Nc1ccc(S(N)(=O)=O)cc1F`: the Ki on Carbonic anhydrase 4 was found to be 46 nM; at Carbonic anhydrase 1 it was 540 nM.
The like results for `NCC(=O)NS(=O)(=O)c1ccc(CO)cc1` were, in that order, 180 nM and 1800 nM.
The like results for `NCC(=O)Nc1ccc2nc(S(N)(=O)=O)sc2c1` were, in that order, 72 nM and 17 nM.
The matching figures for `NCC(=O)NNc1ccc(S(N)(=O)=O)cc1`: 300 nM and 25500 nM.
Consider `NCC(=O)NCC(=O)Nc1cc(Cl)c(S(N)(=O)=O)cc1S(N)(=O)=O`, for which the inhibitory constant (Ki) at Carbonic anhydrase 4 was determined as 54 nM; on Carbonic anhydrase 1, 360 nM.
On to `NCC(=O)NCC(=O)NS(=O)(=O)c1ccc(CCO)cc1`, for which the figures for the inhibition constant (Ki) on Carbonic anhydrase 4 and on Carbonic anhydrase 1 were 150 nM and 1500 nM, respectively.
As for `CN(CC(=O)NS(=O)(=O)c1nc2ccc(O)cc2s1)C(=N)N`, the Ki worked out at 15 nM at Carbonic anhydrase 4 and 11 nM at Carbonic anhydrase 1.
The like results for `CN(CC(=O)Nc1ccc(S(=O)(=O)Nc2cccc(S(N)(=O)=O)c2)cc1)C(=N)N` were, in that order, 57 nM and 45 nM.
In the case of `CNCC(=O)NS(=O)(=O)c1nc2ccc(O)cc2s1`, the figures for the inhibition constant Ki at Carbonic anhydrase 4 and at Carbonic anhydrase 1 were 30 nM and 11 nM, respectively.
In the case of `Cn1nc(S(N)(=O)=O)s/c1=N/C(=O)CNC(=O)CN`, the inhibition constant (Ki) on Carbonic anhydrase 4 is 44 nM; at Carbonic anhydrase 1, 280 nM.
The matching figures for `CNCC(=O)Nc1ccc(S(N)(=O)=O)cc1Br`: 64 nM and 540 nM.
For the compound `Cn1nc(S(N)(=O)=O)s/c1=N\S(=O)(=O)c1ccc(NC(=O)CN)cc1`, the affinity at Carbonic anhydrase 1 corresponds to a Ki of 15 nM.
`CN(CC(=O)Nc1ccc(S(=O)(=O)/N=c2\sc(S(N)(=O)=O)nn2C)cc1)C(=N)N` returned an inhibitory constant (Ki) at Carbonic anhydrase 1 of 11 nM.
With `NCC(=O)NCC(=O)NNc1ccc(S(N)(=O)=O)cc1`, the Ki at Carbonic anhydrase 4 was 300 nM; at Carbonic anhydrase 1, 25200 nM.
The like results for `CNCC(=O)NCCc1ccc(S(N)(=O)=O)cc1` were, in that order, 70 nM and 820 nM.
The matching figures for `NCC(=O)NCC(=O)NCCc1ccc(S(N)(=O)=O)cc1`: 70 nM and 800 nM.
As to `CN(CC(=O)Nc1ccc2nc(S(N)(=O)=O)sc2c1)C(=N)N`, the inhibition constant Ki amounted to 12 nM on Carbonic anhydrase 4 and 10 nM at Carbonic anhydrase 1.
The like results for `CN(CC(=O)NS(=O)(=O)c1ccc(CCO)cc1)C(=N)N` were, in that order, 86 nM and 1000 nM.
Consider `NCC(=O)NCC(=O)NS(=O)(=O)c1nc2ccc(O)cc2s1`, for which the Ki at Carbonic anhydrase 4 came out at 62 nM; at Carbonic anhydrase 1 it was 12 nM.
The matching figures for `CNCC(=O)NCCC(=O)Nc1nnc(S(N)(=O)=O)s1`: 9 nM and 21 nM.
For the compound `CNCC(=O)NS(=O)(=O)c1ccc(CCO)cc1`, the inhibitory constant (Ki) on Carbonic anhydrase 4 was found to be 112 nM; on Carbonic anhydrase 1 it was 1300 nM.
In the case of `NCC(=O)NS(=O)(=O)c1nc2ccc(O)cc2s1`, the Ki was determined as 69 nM at Carbonic anhydrase 4 and 16 nM on Carbonic anhydrase 1.
The matching figures for `Cn1nc(S(N)(=O)=O)s/c1=N\S(=O)(=O)c1ccc(N)cc1`: 0.8 nM and 1 nM.
The like results for `Nc1ccc(S(=O)(=O)Nc2cccc(S(N)(=O)=O)c2)cc1` were, in that order, 53 nM and 44 nM.
The like results for `CN(CC(=O)Nc1ccc(S(N)(=O)=O)cc1Br)C(=N)N` were, in that order, 62 nM and 525 nM.
On to `NCC(=O)NCCc1ccc(S(N)(=O)=O)cc1`, for which the Ki was 76 nM on Carbonic anhydrase 4 and 850 nM on Carbonic anhydrase 1.
Consider `CN(CC(=O)Nc1ccc(S(=O)(=O)Nc2nnc(S(N)(=O)=O)s2)cc1)C(=N)N`, for which the Ki at Carbonic anhydrase 4 was determined as 5 nM; on Carbonic anhydrase 1, 12 nM.
Regarding `CNCC(=O)Nc1nnc(S(N)(=O)=O)s1`, the Ki on Carbonic anhydrase 4 stood at 39 nM; at Carbonic anhydrase 1, 305 nM.
The like results for `CN(CC(=O)Nc1ccc(S(N)(=O)=O)cc1Cl)C(=N)N` were, in that order, 60 nM and 510 nM.
`CNCC(=O)NNc1ccc(S(N)(=O)=O)cc1`: the figures for the inhibition constant (Ki) at Carbonic anhydrase 4 and at Carbonic anhydrase 1 were 280 nM and 22000 nM, respectively.
Regarding `NCC(=O)NCC(=O)NS(=O)(=O)c1ccc(CO)cc1`, the results for the Ki on Carbonic anhydrase 4 and at Carbonic anhydrase 1 were 150 nM and 1500 nM, respectively.
The like results for `NCC(=O)Nc1cc(Cl)c(S(N)(=O)=O)cc1S(N)(=O)=O` were, in that order, 60 nM and 360 nM.
For the compound `NCC(=O)Nc1ccc(S(=O)(=O)Nc2cccc(S(N)(=O)=O)c2)cc1`, the Ki on Carbonic anhydrase 4 worked out at 79 nM; on Carbonic anhydrase 1, 60 nM.
The like results for `NCC(=O)NCC(=O)Nc1ccc(S(=O)(=O)Nc2cccc(S(N)(=O)=O)c2)cc1` were, in that order, 60 nM and 55 nM.
Regarding `NCC(=O)NCC(=O)NCc1ccc(S(N)(=O)=O)cc1`, the Ki on Carbonic anhydrase 4 came to 75 nM; at Carbonic anhydrase 1, 1360 nM.
The matching figures for `NCC(=O)Nc1ccc(S(N)(=O)=O)cc1I`: 74 nM and 610 nM.
With `NCC(=O)NS(=O)(=O)c1nc2ccc(OCCO)cc2s1`, the values for the Ki on Carbonic anhydrase 4 and on Carbonic anhydrase 1 were 23 nM and 9 nM, respectively.
The matching figures for `CN(CC(=O)Nc1nccc(Nc2ccc(S(N)(=O)=O)cc2)n1)C(=N)N`: 40 nM and 53 nM.
The like results for `CNCC(=O)NCc1ccc(S(N)(=O)=O)cc1` were, in that order, 74 nM and 965 nM.
As for `NCC(=O)NCc1ccc(S(N)(=O)=O)cc1`, the inhibitory constant (Ki) on Carbonic anhydrase 4 stood at 82 nM; on Carbonic anhydrase 1 it was 1400 nM.
For `CN(CC(=O)NS(=O)(=O)c1ccc(CO)cc1)C(=N)N`, the Ki turned out to be 89 nM at Carbonic anhydrase 4 and 1200 nM at Carbonic anhydrase 1.
Consider `CN(CC(=O)Nc1c(S(N)(=O)=O)cc(S(N)(=O)=O)c(Cl)c1Cl)C(=N)N`, for which the Ki was 51 nM on Carbonic anhydrase 4 and 525 nM on Carbonic anhydrase 1.
`CN(CC(=O)NS(=O)(=O)c1nc2ccc(OCCO)cc2s1)C(=N)N`: the inhibition constant Ki worked out at 11 nM on Carbonic anhydrase 4 and 9 nM at Carbonic anhydrase 1.
For `NCC(=O)NCC(=O)Nc1ccc2nc(S(N)(=O)=O)sc2c1`, the inhibition constant Ki at Carbonic anhydrase 4 was 64 nM; on Carbonic anhydrase 1 it was 16 nM.
The matching figures for `CNCC(=O)Nc1ccc(S(=O)(=O)Nc2cccc(S(N)(=O)=O)c2)cc1`: 61 nM and 51 nM.
